One experiment concerns the target PKR(G332S) (Homo sapiens, UniProt P30613, G332S). Description: Luminescence Biochemical Assay (Kinase Glo Plus), PKR G332S mutant. Particulars: with FBP; for activation at 1.54 µM: 1.54 μM compound, read-out: AC50 LUM KGP FBP % Fold@1.54 μM mean; for AC50: read-out: AC50 LUM KGP FBP AC50 μM gmean (column A); for Emax: read-out: AC50 LUM KGP FBP MAX % FOLD mean. (In general: Kinase-Glo measures the ATP left after a reaction by luminescence.)

In a further experiment the target is PKR(R510Q) (Homo sapiens, UniProt P30613, R510Q). Description: Luminescence Biochemical Assay (Kinase Glo Plus), PKR R510Q mutant. Particulars: without FBP; for activation at 1.54 µM: 1.54 μM compound, read-out: AC50 LUM KGP woFBP % Fold@1.54 μM mean; for AC50: read-out: AC50 LUM KGP woFBP AC50 μM gmean; for Emax: read-out: AC50 LUM KGP woFBP MAX % FOLD mean.
In the next experiment the target is PKR(wt) (Homo sapiens, UniProt P30613). Put plainly: Luminescence Biochemical Assay (Kinase Glo Plus), wild type PKR. The conditions noted are these: without FBP; for activation at 1.54 µM: 1.54 μM compound, read-out: AC50 LUM KGP woFBP % Fold@1.54 μM mean; for AC50: read-out: AC50 LUM KGP woFBP AC50 μM gmean; for Emax: read-out: AC50 LUM KGP woFBP MAX % FOLD mean.
PKR(wt), sequence (P30613 whole entry): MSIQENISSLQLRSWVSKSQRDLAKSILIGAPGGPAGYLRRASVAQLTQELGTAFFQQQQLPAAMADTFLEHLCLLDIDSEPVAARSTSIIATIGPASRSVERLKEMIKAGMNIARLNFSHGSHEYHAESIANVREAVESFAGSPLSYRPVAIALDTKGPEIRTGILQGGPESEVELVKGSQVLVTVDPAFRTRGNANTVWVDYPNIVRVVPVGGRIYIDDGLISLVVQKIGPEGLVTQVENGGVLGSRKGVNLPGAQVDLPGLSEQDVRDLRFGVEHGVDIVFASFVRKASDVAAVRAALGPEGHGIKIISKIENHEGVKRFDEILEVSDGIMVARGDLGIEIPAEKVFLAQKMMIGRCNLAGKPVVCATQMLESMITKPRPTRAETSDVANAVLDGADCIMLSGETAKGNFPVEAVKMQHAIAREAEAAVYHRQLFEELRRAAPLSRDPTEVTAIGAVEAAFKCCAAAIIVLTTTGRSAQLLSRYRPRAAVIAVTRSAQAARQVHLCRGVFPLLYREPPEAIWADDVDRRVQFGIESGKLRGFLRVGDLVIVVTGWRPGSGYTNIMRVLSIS

PKR(G332S), sequence (P30613 whole entry G332S): as the sequence (P30613 whole entry) above, with G332S counted along it
PKR(R510Q), sequence (P30613 whole entry R510Q): as the sequence (P30613 whole entry) above, with R510Q counted along it

The AC50 is the midpoint of the concentration-response curve, whichever way the signal moves. For the compound `O=C([C@H]1CCCO1)N1CC2=C(C1)CN(S(=O)(=O)c1ccccn1)C2` [Example 18-60, 2-({5-[(2R)-oxolane-2-carbonyl]-1H,2H,3H,4H,5H,6H-pyrrolo[3,4-c]pyrrol-2-yl}sulfonyl)pyridine], the activation at 1.54 µM at PKR(G332S), at PKR(R510Q) and at PKR(wt) was 75 to 250% in each case. The AC50 at PKR(G332S), on PKR(R510Q) and at PKR(wt) was 1 to 40 µM in each case. Also, the figures for the Emax on PKR(G332S), on PKR(R510Q) and on PKR(wt) were 75 to 250%, 250 to 500% and 250 to 500%, respectively.

Consider `O=C([C@H](O)c1ccccc1)N1CC2=C(C1)CN(S(=O)(=O)c1cccc(C(F)(F)F)n1)C2` [Example 9-3, (2R)-2-hydroxy-2-phenyl-1-[5-[6-(trifluoromethyl)pyridine-2-sulfonyl]-1H,2H,3H,4H,5H,6H-pyrrolo[3,4-c]pyrrol-2-yl]ethan-1-one], for which, at PKR(G332S), the activation at 1.54 µM was in the range of 75 to 250%, the AC50 was 1 to 40 µM and the Emax fell in the range of 75 to 250%. On PKR(R510Q), the activation at 1.54 µM lay in the range of 75 to 250%, the AC50 lay in the range of 1 to 40 µM and the Emax was in the range of 250 to 500%. Also, at PKR(wt), the activation at 1.54 µM was 75 to 250%, the AC50 was in the range of 0.1 to 1 µM and the Emax lay within 75 to 250%.

As to `COc1cccc(CNC(=O)N2CC3=C(C2)CN(S(=O)(=O)c2ccc(OC(F)F)cc2)C3)c1` [Example 21-11, 5-[4-(Difluoromethoxy)benzenesulfonyl]-N-[(3-methoxyphenyl)methyl]-1H,2H,3H,4H,5H,6H-pyrrolo[3,4-c]pyrrole-2-carboxamide], the figures for the activation at 1.54 µM at PKR(G332S), on PKR(R510Q) and on PKR(wt) were 75 to 250%, 250 to 50000% and 250 to 50000%, respectively. The AC50 at PKR(G332S), on PKR(R510Q) and at PKR(wt) was no more than 0.1 µM each time. Further, the Emax is 75 to 250% at PKR(G332S), 250 to 500% at PKR(R510Q) and 250 to 500% at PKR(wt).

As for `O=C(OCC1CC1)N1CC2=C(C1)CN(S(=O)(=O)c1ccc(OC(F)F)cc1)C2` [Example 22-2, Cyclopropylmethyl 5-[4-(difluoromethoxy)benzenesulfonyl]-1H,2H,3H,4H,5H,6H-pyrrolo[3,4-c]pyrrole-2-carboxylate], at PKR(G332S), the activation at 1.54 µM fell in the range of 75 to 250%, the AC50 lay in the range of 1 to 40 µM and the Emax was in the range of 75 to 250%. Also, at PKR(R510Q), the activation at 1.54 µM was 75 to 250%, the AC50 is 1 to 40 µM and the Emax is 250 to 500%. On PKR(wt), the activation at 1.54 µM was in the range of 75 to 250%, the AC50 fell in the range of 1 to 40 µM and the Emax was in the range of 250 to 500%.

As to `Cc1ccc(CC(=O)N2CC3=C(C2)CN(S(=O)(=O)c2ccccn2)C3)cn1` [Example 18-61, 2-(6-Methylpyridin-3-yl)-1-[5-(pyridine-2-sulfonyl)-1H,2H,3H,4H,5H,6H-pyrrolo[3,4-c]pyrrol-2-yl]ethan-1-one], on PKR(G332S), the activation at 1.54 µM lay within 75 to 250%, the AC50 was in the range of 1 to 40 µM and the Emax was 75 to 250%. Further, on PKR(R510Q), the activation at 1.54 µM is 75 to 250%, the AC50 was in the range of 1 to 40 µM and the Emax lay in the range of 250 to 500%. For the same compound, on PKR(wt), the activation at 1.54 µM was 75 to 250%, the AC50 is 1 to 40 µM and the Emax was in the range of 250 to 500%.

Turning to `O=C(Cn1cccn1)N1CC2=C(C1)CN(S(=O)(=O)c1ccc(OC(F)F)cc1)C2` [Example 18-21, 1-{5-[4-(Difluoromethoxy)benzenesulfonyl]-1H,2H,3H,4H,5H,6H-pyrrolo[3,4-c]pyrrol-2-yl}-2-(1H-pyrazol-1-yl)ethan-1-one], the activation at 1.54 µM at PKR(G332S), on PKR(R510Q) and on PKR(wt) was 75 to 250% each time. Moreover, the AC50 is 0.1 to 1 µM on PKR(G332S), 1 to 40 µM at PKR(R510Q) and 1 to 40 µM at PKR(wt). Further, the Emax at PKR(G332S) lay in the range of 75 to 250%; on PKR(R510Q), 250 to 500%; at PKR(wt), 250 to 500%.

As to `CC(=O)Nc1cc(S(=O)(=O)N2CC3=C(CN(C(=O)[C@H](O)c4ccccc4)C3)C2)ccc1F` [Example 14-1, (R)—N-(2-fluoro-5-((5-(2-hydroxy-2-phenylacetyl)-3,4,5,6-tetrahydropyrrolo[3,4-c]pyrrol-2(1H)-yl)sulfonyl)phenyl)acetamide], at PKR(G332S), the activation at 1.54 µM fell in the range of 75 to 250%, the AC50 is 1 to 40 µM and the Emax lay within 75 to 250%. Besides, at PKR(R510Q), the activation at 1.54 µM fell in the range of 75 to 250%, the AC50 was in the range of 1 to 40 µM and the Emax fell in the range of 75 to 250%. Besides, at PKR(wt), the activation at 1.54 µM is 75 to 250%, the AC50 fell in the range of 1 to 40 µM and the Emax lay within 75 to 250%.

In the case of `COc1cccc(CNC(=O)N2CC3=C(C2)CN(S(=O)(=O)c2ccc4ncsc4c2)C3)c1` [Example 21-17, 5-(1,3-Benzothiazole-6-sulfonyl)-N-[(3-methoxyphenyl)methyl]-1H,2H,3H,4H,5H,6H-pyrrolo[3,4-c]pyrrole-2-carboxamide], the activation at 1.54 µM at PKR(G332S), at PKR(R510Q) and at PKR(wt) was 75 to 250% in each case. In addition, the AC50 is no more than 0.1 µM on PKR(G332S), 1 to 40 µM on PKR(R510Q) and no more than 0.1 µM on PKR(wt). The Emax on PKR(G332S), at PKR(R510Q) and on PKR(wt) was 75 to 250% throughout.

For the compound `NS(=O)(=O)c1cccc(S(=O)(=O)N2CC3=C(CN(C(=O)[C@H](O)c4ccccc4)C3)C2)c1` [Example 17-1, 3-[5-[(2R)-2-hydroxy-2-phenylacetyl]-1H,2H,3H,4H,5H,6H-pyrrolo[3,4-c]pyrrole-2-sulfonyl]benzene-1-sulfonamide], at PKR(G332S), the activation at 1.54 µM lay in the range of 75 to 250%, the AC50 was in the range of 1 to 40 µM and the Emax fell in the range of 75 to 250%. At PKR(R510Q), the activation at 1.54 µM was in the range of 75 to 250%, the AC50 lay in the range of 1 to 40 µM and the Emax was in the range of 75 to 250%. In addition, at PKR(wt), the activation at 1.54 µM is 75 to 250%, the AC50 lay in the range of 1 to 40 µM and the Emax was 75 to 250%.

For `O=C(NCc1cccc(F)c1)N1CC2=C(C1)CN(S(=O)(=O)c1ccc(OC(F)F)cc1)C2` [Example 21-14, 5-[4-(Difluoromethoxy)benzenesulfonyl]-N-[(3-fluorophenyl)methyl]-1H,2H,3H,4H,5H,6H-pyrrolo[3,4-c]pyrrole-2-carboxamide], at PKR(G332S), the activation at 1.54 µM lay in the range of 75 to 250%, the AC50 lay in the range of 0.1 to 1 µM and the Emax lay within 75 to 250%. For the same compound, at PKR(R510Q), the activation at 1.54 µM lay in the range of 250 to 50000%, the AC50 is 1 to 40 µM and the Emax fell in the range of 250 to 500%. Further, on PKR(wt), the activation at 1.54 µM lay within 250 to 50000%, the AC50 lay within 0.1 to 1 µM and the Emax was 250 to 500%.

Regarding `CC(=O)Nc1ccc(S(=O)(=O)N2CC3=C(CN(C(=O)[C@H](O)c4ccccc4)C3)C2)cc1` [Example 18-56, N-[4-({5-[(2R)-2-hydroxy-2-phenylacetyl]-1H,2H,3H,4H,5H,6H-pyrrolo[3,4-c]pyrrol-2-yl}sulfonyl)phenyl]acetamide], at PKR(G332S), the activation at 1.54 µM lay in the range of 75 to 250%, the AC50 was in the range of 1 to 40 µM and the Emax was 75 to 250%. Further, at PKR(R510Q), the activation at 1.54 µM lay in the range of 75 to 250%, the AC50 was 1 to 40 µM and the Emax lay in the range of 250 to 500%. At PKR(wt), the activation at 1.54 µM fell in the range of 75 to 250%, the AC50 was in the range of 1 to 40 µM and the Emax lay within 75 to 250%.

`Cc1nn(C)c(Cl)c1S(=O)(=O)N1CC2=C(CN(C(=O)[C@H](O)c3ccccc3)C2)C1` [Example 18-43, (2R)-1-{5-[(5-chloro-1,3-dimethyl-1H-pyrazol-4-yl)sulfonyl]-1H,2H,3H,4H,5H,6H-pyrrolo[3,4-c]pyrrol-2-yl}-2-hydroxy-2-phenylethan-1-one]: at PKR(G332S), the activation at 1.54 µM fell in the range of 75 to 250%, the AC50 was in the range of 1 to 40 µM and the Emax lay in the range of 75 to 250%. Besides, at PKR(R510Q), the activation at 1.54 µM is 75 to 250%, the AC50 was in the range of 1 to 40 µM and the Emax lay within 75 to 250%. In addition, on PKR(wt), the activation at 1.54 µM lay in the range of 75 to 250%, the AC50 fell in the range of 1 to 40 µM and the Emax lay in the range of 75 to 250%.

For the compound `O=C([C@H](O)c1ccc2c(c1)CNCC2)N1CC2=C(C1)CN(S(=O)(=O)c1ccc(OC(F)F)cc1)C2` (single isomer, unassigned) [Example 11-2], the activation at 1.54 µM on PKR(G332S) is 75 to 250%; on PKR(R510Q), 250 to 50000%; at PKR(wt), 75 to 250%. The AC50 on PKR(G332S) is 0.1 to 1 µM; on PKR(R510Q), no more than 0.1 µM; at PKR(wt), no more than 0.1 µM. Besides, the Emax lay within 75 to 250% on PKR(G332S), 250 to 500% at PKR(R510Q) and 250 to 500% on PKR(wt).

`COc1cc(Cl)ccc1S(=O)(=O)N1CC2=C(CN(C(=O)[C@H](O)c3ccccc3)C2)C1` [Example 18-58, (2R)-1-[5-(4-chloro-2-methoxybenzenesulfonyl)-1H,2H,3H,4H,5H,6H-pyrrolo[3,4-c]pyrrol-2-yl]-2-hydroxy-2-phenylethan-1-one]: on PKR(G332S), the activation at 1.54 µM fell in the range of 75 to 250%, the AC50 was in the range of 1 to 40 µM and the Emax lay within 75 to 250%. Also, on PKR(R510Q), the activation at 1.54 µM is 75 to 250%, the AC50 was 1 to 40 µM and the Emax is 75 to 250%. Further, on PKR(wt), the activation at 1.54 µM lay within 75 to 250%, the AC50 is 1 to 40 µM and the Emax fell in the range of 75 to 250%.

`O=C(Cc1cccnc1)N1CC2=C(C1)CN(S(=O)(=O)c1ccc(OC(F)F)cc1)C2` [Example 18-26, 1-{5-[4-(Difluoromethoxy)benzenesulfonyl]-1H,2H,3H,4H,5H,6H-pyrrolo[3,4-c]pyrrol-2-yl}-2-(pyridin-3-yl)ethan-1-one]: at PKR(G332S), the activation at 1.54 µM fell in the range of 75 to 250%, the AC50 was no more than 0.1 µM and the Emax fell in the range of 75 to 250%. On PKR(R510Q), the activation at 1.54 µM was in the range of 250 to 50000%, the AC50 lay in the range of 0.1 to 1 µM and the Emax fell in the range of 250 to 500%. On PKR(wt), the activation at 1.54 µM lay within 250 to 50000%, the AC50 lay within 0.1 to 1 µM and the Emax is 250 to 500%.
